Where “and” joins values, the source holds several entries; their conditions need not be identical. Identical values can stand only once.
System: 947758-054-R-J2-PDC spheroid growth, percent test/control
Assay: Anticancer human tumor 947758-054-R-J2-PDC patient-derived colon adenocarcinoma cell line growth inhibition [CLK]
Conditions: spheroids with HUVEC and MSC; for viability, T/C: stronger effect = lower value
Summary of the method: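 Multi-cell-type spheroids combined patient-derived tumor cells with HUVEC endothelial cells and human mesenchymal stem cells. Paired agents were dosed in half-log steps down from about clinical Cmax, or from 10 microM where Cmax was unknown.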

[1] = curve of first compound, second compound 0.0316 µM
[2] = curve of first compound, second compound 0.1 µM
[3] = curve of first compound, second compound 0.316 µM
[4] = curve of first compound, second compound 1 µM
[5] = curve of first compound, second compound 3.16 µM
[6] = curve of first compound, second compound 10 µM
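Also: spheroids exposed to compounds for one week before readout.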
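For viability, T/C in this document: 100% = DMSO vehicle control wells.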

Question: Which IC50 [1] does the source give for `CCCS(=O)(=O)Nc1ccc(F)c(C(=O)c2c[nH]c3ncc(-c4ccc(Cl)cc4)cc23)c1F` + CNC(=O)c1ccc(Nc2nc(OC3CCCC3)c3c(-c4ccc5nc(C)oc5c4)c[nH]c3n2)c(OC)c1 here?
Answer: The IC50 was under 0.0316 µM.

Question: And the IC50 [2]?
Answer: The IC50 was under 0.0316 µM.

Question: What about the IC50 [3] of the same molecule?
Answer: Its IC50 is 0.0326 µM.

Question: What about the IC50 [4] of the same molecule?
Answer: Its IC50 is under 0.0316 µM.

Question: What about the IC50 [5] of the same molecule?
Answer: Its IC50 is under 0.0316 µM.

Question: And the IC50 [6]?
Answer: Its IC50 is under 0.0316 µM.

Question: And the viability, T/C (second compound 0.0316 µM, first compound 0.0316 µM)?
Answer: The viability, T/C was 39.4%.

Question: And the viability, T/C (second compound 0.0316 µM, first compound 0.1 µM)?
Answer: Its viability, T/C is 44.1%.

Question: What about the viability, T/C (second compound 0.0316 µM, first compound 0.316 µM) of the same molecule?
Answer: Its viability, T/C is 31.6%.

Question: And the viability, T/C (second compound 0.0316 µM, first compound 1 µM)?
Answer: The viability, T/C was 53.5%.

Question: And the viability, T/C (second compound 0.0316 µM, first compound 3.16 µM)?
Answer: Its viability, T/C is 47.7%.

Question: And the viability, T/C (second compound 0.0316 µM, first compound 10 µM)?
Answer: The viability, T/C was 31.5%.

Question: What about the viability, T/C (second compound 0.1 µM, first compound 0.0316 µM) of the same molecule?
Answer: Its viability, T/C is 45.5%.

Question: What about the viability, T/C (second compound 0.1 µM, first compound 0.1 µM) of the same molecule?
Answer: The viability, T/C was 37.9%.

Question: What about the viability, T/C (second compound 0.1 µM, first compound 0.316 µM) of the same molecule?
Answer: The viability, T/C was 29%.

Question: And the viability, T/C (second compound 0.1 µM, first compound 1 µM)?
Answer: Its viability, T/C is 28.2%.

Question: What about the viability, T/C (second compound 0.1 µM, first compound 3.16 µM) of the same molecule?
Answer: The viability, T/C was 24.6%.

Question: What about the viability, T/C (second compound 0.1 µM, first compound 10 µM) of the same molecule?
Answer: Its viability, T/C is 17.2%.

Question: What about the viability, T/C (second compound 0.316 µM, first compound 0.0316 µM) of the same molecule?
Answer: The viability, T/C was 50.4%.

Question: What about the viability, T/C (second compound 0.316 µM, first compound 0.1 µM) of the same molecule?
Answer: Its viability, T/C is 33.6%.

Question: What about the viability, T/C (second compound 0.316 µM, first compound 0.316 µM) of the same molecule?
Answer: The viability, T/C was 18.8%.

Question: And the viability, T/C (second compound 0.316 µM, first compound 1 µM)?
Answer: Its viability, T/C is 22.5%.

Question: And the viability, T/C (second compound 0.316 µM, first compound 3.16 µM)?
Answer: The viability, T/C was 23.9%.

Question: And the viability, T/C (second compound 0.316 µM, first compound 10 µM)?
Answer: The viability, T/C was 11.2%.

Question: What about the viability, T/C (second compound 1 µM, first compound 0.0316 µM) of the same molecule?
Answer: Its viability, T/C is 37.6%.

Question: And the viability, T/C (second compound 1 µM, first compound 0.1 µM)?
Answer: Its viability, T/C is 25.5%.

Question: What about the viability, T/C (second compound 1 µM, first compound 0.316 µM) of the same molecule?
Answer: Its viability, T/C is 16.9%.

Question: What about the viability, T/C (second compound 1 µM, first compound 1 µM) of the same molecule?
Answer: Its viability, T/C is 13.6%.

Question: What about the viability, T/C (second compound 1 µM, first compound 3.16 µM) of the same molecule?
Answer: The viability, T/C was 14.4%.

Question: And the viability, T/C (second compound 1 µM, first compound 10 µM)?
Answer: The viability, T/C was 4.09%.

Question: And the viability, T/C (second compound 3.16 µM, first compound 0.0316 µM)?
Answer: Its viability, T/C is 30.2%.

Question: And the viability, T/C (second compound 3.16 µM, first compound 0.1 µM)?
Answer: The viability, T/C was 20.7%.

Question: And the viability, T/C (second compound 3.16 µM, first compound 0.316 µM)?
Answer: Its viability, T/C is 15.7%.

Question: What about the viability, T/C (second compound 3.16 µM, first compound 1 µM) of the same molecule?
Answer: The viability, T/C was 13.1%.

Question: What about the viability, T/C (second compound 3.16 µM, first compound 3.16 µM) of the same molecule?
Answer: The viability, T/C was 10%.

Question: And the viability, T/C (second compound 3.16 µM, first compound 10 µM)?
Answer: The viability, T/C was 4.82%.

Question: What about the viability, T/C (second compound 10 µM, first compound 0.0316 µM) of the same molecule?
Answer: The viability, T/C was 24.2%.

Question: And the viability, T/C (second compound 10 µM, first compound 0.1 µM)?
Answer: The viability, T/C was 20.9%.

Question: What about the viability, T/C (second compound 10 µM, first compound 0.316 µM) of the same molecule?
Answer: Its viability, T/C is 14.4%.

Question: And the viability, T/C (second compound 10 µM, first compound 1 µM)?
Answer: The viability, T/C was 13.6%.

Question: And the viability, T/C (second compound 10 µM, first compound 3.16 µM)?
Answer: The viability, T/C was 9.07%.

Question: What about the viability, T/C (second compound 10 µM, first compound 10 µM) of the same molecule?
Answer: Its viability, T/C is 4.26%.

Question: With `CCN1CCN(Cc2ccc(Nc3ncc(F)c(-c4cc(F)c5nc(C)n(C(C)C)c5c4)n3)nc2)CC1` as the molecule, how does the viability, T/C (compound 0.00316 µM) read?
Answer: Its viability, T/C is 81.3% and 94.8%.

Question: And the viability, T/C (compound 0.01 µM)?
Answer: Its viability, T/C is 81.6% and 106%.

Question: And the viability, T/C (compound 0.0316 µM)?
Answer: Its viability, T/C is 139% and 190%.

Question: What about the viability, T/C (compound 0.1 µM) of the same molecule?
Answer: Its viability, T/C is 164% and 182%.

Question: What about the viability, T/C (compound 0.316 µM) of the same molecule?
Answer: Its viability, T/C is 130% and 126%.

Question: What about the viability, T/C (compound 1 µM) of the same molecule?
Answer: Its viability, T/C is 43% and 55.8%.

Question: And the IC50 (curve of compound)?
Answer: The IC50 was 0.9 µM and > 1 µM.

Question: How did the IC50 [1] turn out when `CC(C)CC(NC(=O)C(Cc1ccccc1)NC(=O)c1cnccn1)B(O)O` (stereo unspecified) + CNC(=O)c1ccc(Nc2nc(OC3CCCC3)c3c(-c4ccc5nc(C)oc5c4)c[nH]c3n2)c(OC)c1 was run?
Answer: The IC50 was 0.00185 µM.

Question: What about the IC50 [2] of the same molecule?
Answer: The IC50 was 0.00166 µM.

Question: And the IC50 [3]?
Answer: Its IC50 is 0.00172 µM.

Question: What about the IC50 [4] of the same molecule?
Answer: Its IC50 is 0.00142 µM.

Question: And the IC50 [5]?
Answer: Its IC50 is under 0.000949 µM.

Question: And the IC50 [6]?
Answer: Its IC50 is under 0.000949 µM.

Question: What about the viability, T/C (second compound 0.0316 µM, first compound 0.000949 µM) of the same molecule?
Answer: The viability, T/C was 117%.

Question: And the viability, T/C (second compound 0.0316 µM, first compound 0.003 µM)?
Answer: Its viability, T/C is 1.15%.

Question: What about the viability, T/C (second compound 0.0316 µM, first compound 0.00949 µM) of the same molecule?
Answer: The viability, T/C was 0.26%.

Question: And the viability, T/C (second compound 0.0316 µM, first compound 0.03 µM)?
Answer: Its viability, T/C is 0.29%.

Question: What about the viability, T/C (second compound 0.0316 µM, first compound 0.0949 µM) of the same molecule?
Answer: The viability, T/C was 0.3%.

Question: What about the viability, T/C (second compound 0.0316 µM, first compound 0.3 µM) of the same molecule?
Answer: The viability, T/C was 0.28%.

Question: And the viability, T/C (second compound 0.1 µM, first compound 0.000949 µM)?
Answer: The viability, T/C was 89%.

Question: And the viability, T/C (second compound 0.1 µM, first compound 0.003 µM)?
Answer: The viability, T/C was 8.66%.

Question: And the viability, T/C (second compound 0.1 µM, first compound 0.00949 µM)?
Answer: The viability, T/C was 0.26%.

Question: What about the viability, T/C (second compound 0.1 µM, first compound 0.03 µM) of the same molecule?
Answer: The viability, T/C was 0.27%.

Question: What about the viability, T/C (second compound 0.1 µM, first compound 0.0949 µM) of the same molecule?
Answer: Its viability, T/C is 0.25%.

Question: And the viability, T/C (second compound 0.1 µM, first compound 0.3 µM)?
Answer: The viability, T/C was 1.66%.

Question: What about the viability, T/C (second compound 0.316 µM, first compound 0.000949 µM) of the same molecule?
Answer: Its viability, T/C is 102%.

Question: What about the viability, T/C (second compound 0.316 µM, first compound 0.003 µM) of the same molecule?
Answer: Its viability, T/C is 1.44%.

Question: And the viability, T/C (second compound 0.316 µM, first compound 0.00949 µM)?
Answer: Its viability, T/C is 0.22%.

Question: And the viability, T/C (second compound 0.316 µM, first compound 0.03 µM)?
Answer: The viability, T/C was 0.22%.

Question: And the viability, T/C (second compound 0.316 µM, first compound 0.0949 µM)?
Answer: Its viability, T/C is 0.25%.

Question: What about the viability, T/C (second compound 0.316 µM, first compound 0.3 µM) of the same molecule?
Answer: Its viability, T/C is 0.23%.

Question: And the viability, T/C (second compound 1 µM, first compound 0.000949 µM)?
Answer: Its viability, T/C is 75.7%.

Question: And the viability, T/C (second compound 1 µM, first compound 0.003 µM)?
Answer: Its viability, T/C is 2.99%.

Question: And the viability, T/C (second compound 1 µM, first compound 0.00949 µM)?
Answer: Its viability, T/C is 0.32%.

Question: And the viability, T/C (second compound 1 µM, first compound 0.03 µM)?
Answer: Its viability, T/C is 0.21%.

Question: What about the viability, T/C (second compound 1 µM, first compound 0.0949 µM) of the same molecule?
Answer: The viability, T/C was 0.26%.

Question: What about the viability, T/C (second compound 1 µM, first compound 0.3 µM) of the same molecule?
Answer: Its viability, T/C is 0.46%.

Question: What about the viability, T/C (second compound 3.16 µM, first compound 0.000949 µM) of the same molecule?
Answer: The viability, T/C was 45.1%.

Question: And the viability, T/C (second compound 3.16 µM, first compound 0.003 µM)?
Answer: The viability, T/C was 0.43%.

Question: And the viability, T/C (second compound 3.16 µM, first compound 0.00949 µM)?
Answer: Its viability, T/C is 0.21%.

Question: And the viability, T/C (second compound 3.16 µM, first compound 0.03 µM)?
Answer: Its viability, T/C is 0.19%.

Question: And the viability, T/C (second compound 3.16 µM, first compound 0.0949 µM)?
Answer: The viability, T/C was 0.21%.

Question: And the viability, T/C (second compound 3.16 µM, first compound 0.3 µM)?
Answer: The viability, T/C was 0.24%.

Question: What about the viability, T/C (second compound 10 µM, first compound 0.000949 µM) of the same molecule?
Answer: The viability, T/C was 38.8%.

Question: What about the viability, T/C (second compound 10 µM, first compound 0.003 µM) of the same molecule?
Answer: The viability, T/C was 0.32%.

Question: What about the viability, T/C (second compound 10 µM, first compound 0.00949 µM) of the same molecule?
Answer: Its viability, T/C is 0.21%.

Question: And the viability, T/C (second compound 10 µM, first compound 0.03 µM)?
Answer: The viability, T/C was 0.2%.

Question: And the viability, T/C (second compound 10 µM, first compound 0.0949 µM)?
Answer: The viability, T/C was 0.23%.

Question: What about the viability, T/C (second compound 10 µM, first compound 0.3 µM) of the same molecule?
Answer: The viability, T/C was 0.35%.

Reference: PubChem BioAssay AID2060605 (Molecular Pharmacology Branch, DTP, NCI, 2025)
